Measurements taken from ChEMBL document CHEMBL2413037, “Cembrane diterpenoids from the soft coral Sarcophyton trocheliophorum Marenzeller as a new class of PTP1B inhibitors” (Bioorg Med Chem, 2013).

How the values were obtained:
HL-60 = experiment: Cytotoxicity against human HL60 cells; type: cell-based
[1] = target: T1, Tyrosine-protein phosphatase non-receptor type 1 (Homo sapiens, UniProt P18031); experiment: Inhibition of human recombinant PTP1B-mediated pNPP hydrolysis
T1 sequence (P18031 whole entry): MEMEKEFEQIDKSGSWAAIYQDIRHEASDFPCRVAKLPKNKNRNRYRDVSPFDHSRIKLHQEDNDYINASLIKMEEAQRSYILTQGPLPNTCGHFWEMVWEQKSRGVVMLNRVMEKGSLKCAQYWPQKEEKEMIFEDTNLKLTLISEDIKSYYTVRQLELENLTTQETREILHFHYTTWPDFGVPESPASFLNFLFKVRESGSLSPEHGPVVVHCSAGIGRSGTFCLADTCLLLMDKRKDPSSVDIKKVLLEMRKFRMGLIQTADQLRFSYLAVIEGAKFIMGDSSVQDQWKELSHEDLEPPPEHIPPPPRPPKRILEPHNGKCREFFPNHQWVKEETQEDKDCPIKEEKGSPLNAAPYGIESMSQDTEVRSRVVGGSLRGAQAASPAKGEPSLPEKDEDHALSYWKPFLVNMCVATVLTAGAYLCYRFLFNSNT

A549 = experiment: Cytotoxicity against human A549 cells; type: cell-based

| Structure (SMILES) | Activity (HL-60) | IC50 [1] | Activity (A549) |
| --- | --- | --- | --- |
| COC(=O)/C1=C\C=C(\C(C)C)CC/C(C)=C/CC/C(C)=C/CC1 | Non-toxic | 5.95 µM | Non-toxic |
| COC(=O)/C1=C\CC[C@]2(C)O[C@H]2CC/C(C(=O)OC)=C/C=C(/C(C)C)CC1 | Non-toxic | ≥ 53.1 µM | Non-toxic |
| COC(=O)/C1=C\C=C(\C(C)C)CC/C(C(=O)O)=C/CC[C@]2(C)O[C@H]2CC1 | Non-toxic | ≥ 55.2 µM | Non-toxic |
| COC(=O)/C1=C\CC[C@](C)(O)[C@H](O)CC/C(C(=O)OC)=C\C=C(/C(C)C)CC1 | Non-toxic | ≥ 50.7 µM | Non-toxic |
| CC(=O)O[C@@H]1C/C(C)=C/C/C=C(/C)CC(=O)CC2=C[C@@H](OC2=O)[C@@H]1C(C)C | Non-toxic | ≥ 53.4 µM | Non-toxic |
| C/C1=C\C=C(\C(C)C)CC/C(C)=C/CC/C(C)=C/CC1 | Non-toxic | 26.6 µM | Non-toxic |
| CC(=O)O[C@@H]1C/C(C)=C/CCC(C)CC(=O)CC2=C[C@@H](OC2=O)[C@@H]1C(C)C (stereo partly drawn) | Non-toxic | ≥ 53.1 µM | Non-toxic |
| C/C1=C/C=C(/C(C)C)CCC2=CCC[C@](C)(OC2=O)C(=O)CC1 | Non-toxic | 15.4 µM | Non-toxic |
| CC(C)=C1C/C=C(\C)CC/C=C(\C)CC/C=C(\C)CC1 | Non-toxic | ≥ 73.4 µM | Non-toxic |
| COC(=O)/C1=C\C=C(\C(C)C)CCC2=CCC[C@](C)(OC2=O)C(=O)CC1 [KETOEMBLIDE] | Non-toxic | 27.2 µM | Non-toxic |
| COC(=O)/C1=C/C=C(/C(C)C)CCC2=CCC[C@](C)(OC2=O)C(=O)CC1 [SARCRASSIN E] | Non-toxic | 6.33 µM | Non-toxic |
